Laboratory results taken from patent publication US8846684B2 (priority 2011, dated 2014).
Read-outs that look alike come from different tables or passages of the source.

Test system: WEEV replicon
Assay: microbe, parasite or virus in culture
Format: cell-based, Western equine encephalitis virus
Details: Western equine encephalitis virus; for activity at 2 µM: read-out: Activity (% control LUC) 2 μM; for activity at 10 µM: read-out: Activity (% control LUC) 10 μM
[1] = read-out: Activity (% control LUC) 50 μM
[2] = read-out: 50 μM (% control) Luc

SMILES	IC50 (read-out: Activity IC50 (μM))	activity at 2 µM	activity at 10 µM	activity at 50 µM [1]	IC50	activity at 50 µM [2]
O=C(NCc1ccncc1)C1CCN(C(=O)c2cc3ccccc3n2Cc2ccc(Cl)cc2)CC1 [CCG 203929, 1-(1-(4-chlorobenzyl)-1H-indole-2-carbonyl)-N-(pyridin-4-ylmethyl)piperidine-4-carboxamide]	6.6 µM	99.5%	51.8%	36.4%	–	–
Cc1c(C(=O)N2CCC(C(=O)NCc3ccccc3)CC2)n(Cc2ccc(Cl)cc2)c2ccccc12 [CCG 205431, N-benzyl-1-(1-(4-chlorobenzyl)-3-methyl-1H-indole-2-carbonyl)piperidine-4-carboxamide]	–	–	–	–	> 100 µM	48.4%
COCCn1c(C(=O)N2CCC(C(=O)N(C)Cc3ccccc3)CC2)cc2ccccc21 [CCG 206331, N-benzyl-1-(1-(2-methoxyethyl)-1H-indole-2-carbonyl)-N-methylpiperidine-4-carboxamide]	–	–	–	–	–	74.5%
CN(C)C(=O)C1CCN(C(=O)c2cc3ccccc3n2Cc2ccc(Cl)cc2)CC1 [CCG 204022, 1-(1-(4-chlorobenzyl)-1H-indole-2-carbonyl)-N,N-dimethylpiperidine-4-carboxamide]	10.4 µM	87.3%	51.9%	5.8%	–	–
O=C(NCCc1ccncc1)C1CCN(C(=O)c2cccn2Cc2ccc(Cl)cc2)CC1 [CCG 206381, 1-(1-(4-chlorobenzyl)-1H-pyrrole-2-carbonyl)-N-(2-(pyridin-4-yl)ethyl)piperidine-4-carboxamide]	–	–	–	–	0.68 µM	9.9%
O=C(c1cc2ccccc2n1Cc1ccc(Cl)cc1)N1CCC(C(=O)N2CCC[C@H]2CO)CC1 [CCG 204021, (S)-(1-(4-chlorobenzyl)-1H-indol-2-yl)(4-(2-(hydroxymethyl)pyrrolidine-1-carbonyl)piperidin-1-yl)methanone]	32.1 µM	87.8%	77.9%	21.1%	–	–
O=C(c1cc2ccccc2n1Cc1ccc(Cl)cc1)N1CCC(C(=O)N2CCCC2)CC1 [CCG 102514, (1-(4-chlorobenzyl)-1H-indol-2-yl)(4-(pyrrolidine-1-carbonyl)piperidin-1-yl)methanone]	23.8 µM	83.1%	66.4%	10.5%	–	–
Cn1ccc(CNC(=O)C2CCN(C(=O)c3cc4ccccc4n3Cc3ccc(Cl)cc3)CC2)n1 [CCG 205454, 1-(1-(4-chlorobenzyl)-1H-indole-2-carbonyl)-N-((1-methyl-1H-pyrazol-3-yl)methyl)piperidine-4-carboxamide]	–	–	–	–	76.9 µM	46.6%
O=C(NCCc1ccccc1)C1CCN(C(=O)c2cc3ccccc3n2Cc2ccc(Cl)cc2)CC1 [CCG 206397, 1-(1-(4-chlorobenzyl)-1H-indole-2-carbonyl)-N-phenethylpiperidine-4-carboxamide]	–	–	–	–	15.2 µM	40.2%
CN(Cc1ccccc1)CC1CCN(C(=O)c2cc3ccccc3n2Cc2ccc(F)cc2)CC1 [CCG 206503, (4-((benzyl(methyl)amino)methyl)piperidin-1-yl)(1-(4-fluorobenzyl)-1H-indol-2-yl)methanone]	–	–	–	–	25.1 µM	28.2%
O=C(NCC1Cc2ccccc2C1)C1CCN(C(=O)c2cc3ccccc3n2Cc2ccc(Cl)cc2)CC1 [CCG 206382, 1-(1-(4-chlorobenzyl)-1H-indole-2-carbonyl)-N-((2,3-dihydro-1H-inden-2-yl)methyl)piperidine-4-carboxamide]	–	–	–	–	0.53 µM	25.8%
O=C(NCc1ccccc1)C1CCN(C(=O)c2cccn2Cc2ccc(Cl)cc2)CC1 [CCG 204054, N-benzyl-1-(1-(4-chlorobenzyl)-1H-pyrrole-2-carbonyl)piperidine-4-carboxamide]	54.6 µM	110%	108%	74.5%	–	–
O=C(NCC1CCc2ccccc21)C1CCN(C(=O)c2cc3ccccc3n2Cc2ccc(Cl)cc2)CC1 (centres unmarked) [CCG 206550, 1-(1-(4-chlorobenzyl)-1H-indole-2-carbonyl)-N-((2,3-dihydro-1H-inden-1-yl)methyl)piperidine-4-carboxamide]	–	–	–	–	7.1 µM	47.4%
CN1CCC(CNC(=O)C2CCN(C(=O)c3cc4ccccc4n3Cc3ccc(Cl)cc3)CC2)CC1 [CCG 205429, 1-(1-(4-chlorobenzyl)-1H-indole-2-carbonyl)-N-((1-methylpiperidin-4-yl)methyl)piperidine-4-carboxamide]	–	–	–	–	–	26.8%
O=C(c1cc2ccccc2n1Cc1ccc(Cl)cc1)N1CCC(C(=O)N2CCCC2c2ccccc2)CC1 (centres unmarked) [CCG 205473, (1-(4-chlorobenzyl)-1H-indol-2-yl)(4-(2-phenylpyrrolidine-1-carbonyl)piperidin-1-yl)methanone]	–	–	–	–	–	33.9%
O=C(NCCc1ccncc1)C1CCN(C(=O)c2nc3ccccc3n2Cc2ccc(Cl)cc2)CC1 [CCG 206565, 1-(1-(4-chlorobenzyl)-1H-benzo[d]imidazole-2-carbonyl)-N-(2-(pyridin-4-yl)ethyl)piperidine-4-carboxamide]	–	–	–	–	4.07 µM	12%
O=C(c1cc2ccccc2n1Cc1ccc(Cl)cc1)N1CCN(Cc2ccccc2)CC1 [CCG 206327, (4-benzylpiperazin-1-yl)(1-(4-chlorobenzyl)-1H-indol-2-yl)methanone]	–	–	–	–	11.5 µM	33.3%
CC(C)c1ccc(CCNC(=O)C2CCN(C(=O)c3cc4ccccc4n3Cc3ccc(Cl)cc3)CC2)cc1 [CCG 206461, 1-(1-(4-chlorobenzyl)-1H-indole-2-carbonyl)-N-(4-isopropylphenethyl)piperidine-4-carboxamide]	–	–	–	–	2.9 µM	32.6%
O=C(NCc1cccc(Cl)c1)C1CCN(C(=O)c2cc3ccccc3n2Cc2ccc(Cl)cc2)CC1 [CCG 204043, N-(3-chlorobenzyl)-1-(1-(4-chlorobenzyl)-1H-indole-2-carbonyl)piperidine-4-carboxamide]	28.5 µM	78.6%	60.9%	53.6%	–	–
O=C(NCc1cccc(F)c1)C1CCN(C(=O)c2cc3ccccc3n2Cc2ccc(Cl)cc2)CC1 [CCG 206399, 1-(1-(4-chlorobenzyl)-1H-indole-2-carbonyl)-N-(3-fluorobenzyl)piperidine-4-carboxamide]	–	–	–	–	–	50.4%
Cc1cccc2cc(C(=O)N3CCC(C(=O)NCc4ccccc4)CC3)n(Cc3ccc(Cl)cc3)c12 [CCG 206447, N-benzyl-1-(1-(4-chlorobenzyl)-7-methyl-1H-indole-2-carbonyl)piperidine-4-carboxamide]	–	–	–	–	60.7 µM	46.8%
O=C(c1cc2ccccc2n1Cc1ccc(Cl)cc1)N1CCC2C(=O)N(Cc3ccccc3)CC2C1 (centres unmarked) [CCG 206485, 2-benzyl-5-(1-(4-chlorobenzyl)-1H-indole-2-carbonyl)octahydro-1H-pyrrolo[3,4-c]pyridin-1-one]	–	–	–	–	17.1 µM	39.4%
CN(Cc1ccccc1)C(=O)C1CCN(C(=O)c2cc3ccccc3n2Cc2ccc(Cl)cc2)CC1 [CCG 203930, N-benzyl-1-(1-(4-chlorobenzyl)-1H-indole-2-carbonyl)-N-methylpiperidine-4-carboxamide]	18.6 µM	110%	59.5%	38%	–	–
